One test concerns the target T1, EHD1 (Homo sapiens, UniProt Q9H4M9).
T1 sequence (Q9H4M9 1-534): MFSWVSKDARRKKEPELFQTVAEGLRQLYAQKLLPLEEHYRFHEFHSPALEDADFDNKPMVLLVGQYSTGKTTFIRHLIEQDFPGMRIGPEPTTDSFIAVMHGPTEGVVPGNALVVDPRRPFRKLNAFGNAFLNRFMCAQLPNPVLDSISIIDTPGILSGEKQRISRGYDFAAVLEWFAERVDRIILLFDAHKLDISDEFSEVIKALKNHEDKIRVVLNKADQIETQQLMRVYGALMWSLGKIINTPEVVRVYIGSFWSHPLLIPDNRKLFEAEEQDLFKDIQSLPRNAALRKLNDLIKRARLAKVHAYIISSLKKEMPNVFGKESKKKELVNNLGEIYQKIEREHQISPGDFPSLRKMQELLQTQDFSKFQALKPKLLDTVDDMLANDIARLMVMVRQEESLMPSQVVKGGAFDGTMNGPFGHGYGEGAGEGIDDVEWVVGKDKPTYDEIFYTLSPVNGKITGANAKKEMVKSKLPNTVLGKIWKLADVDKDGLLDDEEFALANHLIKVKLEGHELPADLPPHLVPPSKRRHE
Put plainly: nHU-MS peptide bait, prey EHD1. The settings on record: FigureS2 Volcano; prey EHD1.

The target in test [1] is His6-avi-MBP-tagged POLE2. Briefly: Single-point nHU-MS with recombinant His6-avi-MBP-POLE2 bait, Jurkat extract. The test is classed as binding, human. The conditions noted are these: significant apparent affinity of endogenous prey protein for POLE2 bait; single-point nHU-MS; Figure S11. From the text:
So far, our study only focused on a few hand-picked NPF motifs and studied them as short synthetic peptides. However, many other proteins may be present in the proteome that could bind to POLE2 and their putative NPF motifs are embedded in their natural structures that can greatly affect their binding properties. To investigate interactions between POLE2 and intact, full length proteins proteome-wide, we used nHU-MS experiments with recombinant His6-avi-MBP-tagged POLE2 as bait and purified His6-avi-MBP as a control. Even though we are aware that this recombinant POLE2 may bind to NPF motifs with a somewhat altered affinity, we assumed that this would affect all NPF motif-mediated interactions equally, allowing an unbiased affinity ranking of all identified partners. Single point nHU measurements were performed at 26 μM POLE2 concentration and the recovered supernatant was measured by label free proteomic MS measurements (Fig. 3A, Supplementary Figs. 8A, 9, Supplementary Data 1).
Single-point nHU experiments with protein baits were carried out nearly identically with two key modifications. First, the resin saturation step was carried out by mixing 50 μl streptavidin resin with 0.5−1 ml 50 μM biotinylated protein solution and the mixture was incubated for 1.5 h at 4 °C with constant agitation. Second, instead of using estimated bait concentrations, we measured it experimentally. An extra aliquot of resin stock was prepared alongside the nHU samples that were identically processed that were used to eluate the immobilized proteins under harsh conditions, in order to experimentally quantify the Cbait by using densitometry of Coomassie stained SDS-PAGE that included a protein calibration series. For this, 50 μl bait-saturated resin aliquots were mixed with 200 μl 4x Laemmli Sample Buffer (120 mM Tris-HCl pH 7, 8% SDS, 100 mM DTT, 32% glycerol, 0.004% bromphenol blue, 1% β-mercaptoethanol), instead of cell extract. After 15 min incubation at 95 °C, these samples were analyzed by SDS-PAGE using protein calibration standard, made from recombinant MBP. Densitometry was carried out after Coomassie staining on raw Tif images by using Fiji ImageJ 1.53c and experimental bait concentration were determined by adjusting for molecular weight differences between MBP and MBP-POLE2 constructs.
Samples were digested overnight at 37 °C.

With TSETSK [SYNJ1], at EHD1, the “-log10P” value is 14.1958 and the log2FC was -0.4973. Besides, in test [1], the pKapp_sign is given as 4.4418.

These data come from publication PMC12808100, “The non-catalytic DNA polymerase ε subunit is an NPF motif recognition protein” (Nature Communications, 2025).
